Results reported in article PMC4290489, “Identification of multiple salicylic acid-binding proteins using two high throughput screens” (Frontiers in Plant Science, 2015).

Experiments:
Type in all cases: binding
[1] = target: T1, LOX2 (Arabidopsis thaliana, UniProt P38418); experiment: SPR competition on 3AESA chip; competition of 4AzSA photo-crosslinking; conditions: 1-5 mM SA, HBS-EP pH 7.4 (SPR); competes with 3AESA and 4AzSA
T1 construct: N-terminal His6 (pET28a), from E. coli
T1 sequence (P38418 57-896): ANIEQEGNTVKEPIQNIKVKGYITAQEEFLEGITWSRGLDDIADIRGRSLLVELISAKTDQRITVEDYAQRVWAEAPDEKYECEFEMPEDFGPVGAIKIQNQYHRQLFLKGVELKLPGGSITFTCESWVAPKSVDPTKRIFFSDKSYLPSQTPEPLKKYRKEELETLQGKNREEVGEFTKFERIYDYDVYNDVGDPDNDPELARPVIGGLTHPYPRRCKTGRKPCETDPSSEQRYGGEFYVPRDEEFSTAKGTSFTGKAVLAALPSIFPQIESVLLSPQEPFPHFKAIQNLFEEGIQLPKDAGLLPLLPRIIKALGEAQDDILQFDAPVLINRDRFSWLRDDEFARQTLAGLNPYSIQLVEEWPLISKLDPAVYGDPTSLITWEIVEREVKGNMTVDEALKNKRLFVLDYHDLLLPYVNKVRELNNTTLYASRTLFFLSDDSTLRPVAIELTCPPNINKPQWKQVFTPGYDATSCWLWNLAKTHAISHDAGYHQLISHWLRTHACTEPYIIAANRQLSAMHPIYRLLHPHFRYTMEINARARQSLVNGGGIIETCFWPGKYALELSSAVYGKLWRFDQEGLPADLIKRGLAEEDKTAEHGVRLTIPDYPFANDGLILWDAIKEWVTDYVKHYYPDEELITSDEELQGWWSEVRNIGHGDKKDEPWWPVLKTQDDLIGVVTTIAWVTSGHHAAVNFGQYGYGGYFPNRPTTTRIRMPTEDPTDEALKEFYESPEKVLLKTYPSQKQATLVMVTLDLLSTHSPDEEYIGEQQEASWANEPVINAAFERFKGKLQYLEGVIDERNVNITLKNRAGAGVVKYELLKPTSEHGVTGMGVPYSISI

[2] = target: T2, TRX-m1 (Arabidopsis thaliana, UniProt O48737); experiment: UV photo-crosslinking, anti-SA immunoblot; conditions: 50 uM 4AzSA, PBS, on ice, 254 nm UV; covalent; competed by SA
T2 construct: gene At1g03680; N-terminal His6 (pET28a), from E. coli
T2 sequence (O48737 49-179): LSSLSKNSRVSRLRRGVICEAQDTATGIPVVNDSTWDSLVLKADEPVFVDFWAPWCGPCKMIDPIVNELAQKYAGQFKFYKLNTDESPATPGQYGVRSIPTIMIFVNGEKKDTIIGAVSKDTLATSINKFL

[3] = target: T3, SHM4 (Arabidopsis thaliana, UniProt O23254); experiment: UV photo-crosslinking, anti-SA immunoblot; conditions: 50 uM 4AzSA, PBS, on ice, 254 nm UV; covalent; competed by SA
T3 construct: N-terminal His6 (pET28a), from E. coli
T3 sequence (O23254 1-471): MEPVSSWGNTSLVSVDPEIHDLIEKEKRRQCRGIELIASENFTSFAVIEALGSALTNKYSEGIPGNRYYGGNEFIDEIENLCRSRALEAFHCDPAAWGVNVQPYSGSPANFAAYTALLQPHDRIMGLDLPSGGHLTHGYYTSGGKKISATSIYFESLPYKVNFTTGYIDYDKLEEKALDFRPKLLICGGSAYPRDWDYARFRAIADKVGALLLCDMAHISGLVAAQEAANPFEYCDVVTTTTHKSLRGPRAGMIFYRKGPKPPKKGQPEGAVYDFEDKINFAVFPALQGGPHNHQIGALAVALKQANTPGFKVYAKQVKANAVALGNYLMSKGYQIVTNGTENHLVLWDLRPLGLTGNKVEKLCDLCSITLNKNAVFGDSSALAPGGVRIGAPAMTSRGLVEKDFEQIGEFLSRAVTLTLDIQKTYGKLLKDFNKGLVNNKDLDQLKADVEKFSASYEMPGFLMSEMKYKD

[4] = target: T1, LOX2; experiment: UV photo-crosslinking, anti-SA immunoblot; conditions: 50 uM 4AzSA, PBS, on ice, 254 nm UV; covalent; competed by SA
[5] = target: T4, HPR2 (Arabidopsis thaliana, UniProt Q9CA90); experiment: UV photo-crosslinking, anti-SA immunoblot; conditions: 50 uM 4AzSA, PBS, on ice, 254 nm UV; covalent; competed by SA
T4 construct: N-terminal His6 (pET28a), from E. coli
T4 sequence (Q9CA90 1-313): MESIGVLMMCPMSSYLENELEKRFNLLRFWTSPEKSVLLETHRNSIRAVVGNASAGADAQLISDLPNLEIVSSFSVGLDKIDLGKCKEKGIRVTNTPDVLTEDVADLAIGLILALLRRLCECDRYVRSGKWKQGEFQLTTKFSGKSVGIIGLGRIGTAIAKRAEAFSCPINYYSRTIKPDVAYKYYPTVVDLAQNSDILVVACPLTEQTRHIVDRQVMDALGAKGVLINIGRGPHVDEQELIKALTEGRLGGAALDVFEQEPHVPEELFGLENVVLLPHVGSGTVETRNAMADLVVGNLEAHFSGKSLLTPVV

SMILES | SPR competition on 3AESA chip; competition of 4AzSA photo-crosslinking [1] | UV photo-crosslinking, anti-SA immunoblot [2] | UV photo-crosslinking, anti-SA immunoblot [3] | UV photo-crosslinking, anti-SA immunoblot [4] | UV photo-crosslinking, anti-SA immunoblot [5]
O=C(O)c1ccccc1O [SA] | SA competes with 3AESA and 4AzSA for binding by TRX-m1, TPPII, SHM4, and LOX2 | – | – | – | –
[N-]=[N+]=Nc1ccc(C(=O)O)c(O)c1 [4AzSA] | – | These five proteins also bound and crosslinked to 4AzSA | These five proteins also bound and crosslinked to 4AzSA | These five proteins also bound and crosslinked to 4AzSA | bound 3AESA and crosslinked to 4AzSA in an SA-inhibitable manner, indicating that they are SABPs
